Values quoted from earlier work in patent US20230354819A1 (priority 2020, published 2023).
Bridge positions count the residues as written; N and C are the ends. Square brackets hold non-standard residues; d marks the D form. Peptide text beside a SMILES is read from it. * marks the point of attachment. ξ: configuration not given here. Pentadecanoyl(3ξ-OH,15-Gua) = N=C(N)NCCCCCCCCCCCCC(O)CC(=O)*; d(aThr) = C[C@@H](O)[C@@H](N)C(=O)O; Thr(3ξ) = CC(O)[C@H](N)C(=O)O; ξY = NC(Cc1ccc(O)cc1)C(=O)O

Tests used:
[1] = system: plant pathogenic fungi such as Fusarium oxysporum, Aspergillus niger, Aspergillus oryzae, and Penicillium thomii; conditions: J. Antibiotics 49(2), 129-135, 1996; 50(3), 220-228, 1997
Staphylococcus aureus = system: Staphylococcus aureus; design: unit not given here; conditions: variety of clinically relevant fungi and gram-positive bacteria such a Staphylococcus aureus; ChemMedChem 7, 871-882, 2012
Fusarium oxysporum = conditions: WO 2006/016558

Compound | inhibition of plant pathogenic fungi [1] | MIC value range (Staphylococcus aureus) | inhibition of growth of Fusarium oxysporum (Fusarium oxysporum)
CC1OC(=O)[C@@H](C)NC(=O)[C@@H](CC(N)=O)NC(=O)[C@@H]([C@H](C)O)NC(=O)C(Cc2ccc(O)cc2)NC(=O)[C@@H](C(C)C)NC(=O)[C@H]1NC(=O)CC(O)CCCCCCCCCCCCN=C(N)N (stereo partly shown) [fusaricidin C] ({Pentadecanoyl(3ξ-OH,15-Gua)}-[Thr(3ξ)][dV][ξY][dT][dN][dA]; ester 1-C) | inhibit plant pathogenic fungi | – | –
CC(C)[C@@H]1NC(=O)[C@@H](C(C)C)NC(=O)[C@@H](NC(=O)CC(O)CCCCCCCCCCCCN=C(N)N)[C@@H](C)OC(=O)[C@@H](C)NC(=O)[C@@H](CC(N)=O)NC(=O)[C@@H]([C@@H](C)O)NC1=O (stereo partly shown) [fusaricidin A] ({Pentadecanoyl(3ξ-OH,15-Gua)}-T[dV]V[d(aThr)][dN][dA]; ester 1-C) | inhibit plant pathogenic fungi | 0.78-3.12 | inhibit growth
CC1OC(=O)[C@@H](C)NC(=O)[C@@H](CCC(N)=O)NC(=O)[C@@H]([C@H](C)O)NC(=O)C(Cc2ccc(O)cc2)NC(=O)[C@@H](C(C)C)NC(=O)[C@H]1NC(=O)CC(O)CCCCCCCCCCCCN=C(N)N (stereo partly shown) [fusaricidin D] ({Pentadecanoyl(3ξ-OH,15-Gua)}-[Thr(3ξ)][dV][ξY][dT][dQ][dA]; ester 1-C) | inhibit plant pathogenic fungi | – | –
CC(C)[C@@H]1NC(=O)[C@@H](C(C)C)NC(=O)[C@@H](NC(=O)CC(O)CCCCCCCCCCCCN=C(N)N)C(C)OC(=O)[C@@H](C)NC(=O)[C@@H](CCC(N)=O)NC(=O)[C@@H]([C@H](C)O)NC1=O (stereo in doubt) [fusaricidin B] | inhibit plant pathogenic fungi | – | inhibit growth
